Experimental data reported in ChEMBL document CHEMBL4765407, “Design, synthesis and high antitumor potential of new unsymmetrical bisacridine derivatives towards human solid tumors, specifically pancreatic cancers and their unique ability to stabilize DNA G-quadruplexes” (Eur J Med Chem, 2020).

What was measured:
[1] = system: DU-145; assay: Cytotoxicity against human DU-145 cells assessed as reduction in cell viability measured after 72 hrs by SRB assay; format: functional, cell-based; details: DU-145, 72 h
[2] = system: PANC-1; assay: Cytotoxicity against human PANC-1 cells assessed as reduction in cell viability measured after 72 hrs by SRB assay; format: functional, cell-based; details: PANC-1, 72 h
[3] = system: BXPC-3; assay: Cytotoxicity against human BXPC-3 cells assessed as reduction in cell viability measured after 72 hrs by SRB assay; format: functional, cell-based; details: BXPC-3, 72 h
[4] = system: ASPC1; assay: Cytotoxicity against human ASPC1 cells assessed as reduction in cell viability measured after 72 hrs by SRB assay; format: functional, cell-based; details: ASPC1, 72 h
[5] = system: MIA PaCa-2; assay: Cytotoxicity against human MIA PaCa-2 cells assessed as reduction in cell viability measured after 72 hrs by SRB assay; format: functional, cell-based; details: MIA PaCa-2, 72 h
[6] = system: HCT-116; assay: Cytotoxicity against human HCT-116 cells assessed as reduction in cell viability measured after 72 hrs by SRB assay; format: functional, cell-based; details: HCT-116, 72 h
[7] = system: PANC-1; assay: Antitumour activity against human PANC-1 cells xenografted in Crl:Nu-Foxnl nu mouse assessed as inhibition of tumour growth at total effective dose of 160 mg/kg, iv measured on day 56; format: functional; details: PANC-1, iv, 1344 h, time 56 day, read-out: TGI
[8] = system: PANC-1; assay: Antitumour activity against human PANC-1 cells xenografted in Crl:Nu-Foxnl nu mouse assessed as inhibition of tumour growth at total effective dose of 120 mg/kg, iv measured on day 37; format: functional; details: PANC-1, iv, 888 h, time 37 day, read-out: TGI
[9] = system: PANC-1; assay: Antitumour activity against human PANC-1 cells xenografted in Crl:Nu-Foxnl nu mouse assessed as inhibition of tumour growth at total effective dose of 16 mg/kg, iv measured on day 40; format: functional; details: PANC-1, iv, 960 h, time 40 day, read-out: TGI
[10] = system: PANC-1; assay: Antitumour activity against human PANC-1 cells xenografted in Crl:Nu-Foxnl nu mouse assessed as inhibition of tumour growth at total effective dose of 16 mg/kg, iv measured on day 38; format: functional; details: PANC-1, iv, 912 h, time 38 day, read-out: TGI
[11] = system: Quadruplex DNA; assay: Stabilization of 5'-FAM/3'-TAMRA labeled c-Myc promoter G4 quadruplex DNA FPu18 (unknown origin) assessed as change in melting temperature at 10 microM measured after 15 mins by FRET assay; format: nucleic-acid assay
[12] = system: MDA-MB-231; assay: Cytotoxicity against human MDA-MB-231 cells assessed as reduction in cell viability measured after 72 hrs by SRB assay; format: functional, cell-based; details: MDA-MB-231, 72 h
[13] = system: MCF7; assay: Cytotoxicity against human MCF7 cells assessed as reduction in cell viability measured after 72 hrs by SRB assay; format: functional, cell-based; details: MCF7, 72 h
[14] = system: PANC-1; assay: Antitumour activity against human PANC-1 cells xenografted in Crl:Nu-Foxnl nu mouse assessed as inhibition of tumour growth at total effective dose of 16 mg/kg, iv measured on day 60; format: functional; details: PANC-1, iv, 1440 h, time 60 day, read-out: TGI
[15] = system: Capan-2; assay: Cytotoxicity against human Capan-2 cells assessed as reduction in cell viability measured after 72 hrs by SRB assay; format: functional, cell-based; details: Capan-2, 72 h
[16] = Stabilization of ds 5'-FAM-d(TATAGCTATA-HEG-TATAGCTATA)-TAMRA-3' (unknown origin) assessed as change in melting temperature at 10 microM measured after 15 mins by FRET assay; details: Homo sapiens
[17] = system: Quadruplex DNA; assay: Stabilization of 5'-FAM/3'-TAMRA labeled telomeric G4 quadruplex DNA F21T (unknown origin) assessed as change in melting temperature at 10 microM measured after 15 mins by FRET assay; format: nucleic-acid assay
[18] = system: Quadruplex DNA; assay: Stabilization of 5'-FAM/3'-TAMRA labeled K-Ras G4 quadruplex DNA (unknown origin) assessed as change in melting temperature at 10 microM measured after 15 mins by FRET assay; format: nucleic-acid assay
[19] = system: PANC-1; assay: Antitumour activity against human PANC-1 cells xenografted in Crl:Nu-Foxnl nu mouse assessed as inhibition of tumour growth at total effective dose of 8 mg/kg, iv measured on day 52; format: functional; details: PANC-1, iv, 1248 h, time 52 day, read-out: TGI

Structure (SMILES): Cc1nc2ccc(NCCCN3CCN(CCC(N)c4ccc5nc6ccccc6cc5c4[N+](=O)[O-])CC3)c3c(=O)c4cc(O)ccc4n1c23 (configuration not stated)
- IC50 [1]: 24 nM
- IC50 [2]: 39 nM
- IC50 [3]: 152 nM
- IC50 [4]: 151 nM
- IC50 [5]: 18 nM
- IC50 [6]: 27 nM
- inhibition in vivo at 160 mg/kg [7]: 69%
- inhibition in vivo at 120 mg/kg [8]: 64%
- inhibition in vivo at 16 mg/kg [9]: 68%

Structure (SMILES): O=c1c2ccccc2n2cnc3ccc(NCCNc4c5ccccc5nc5cccc([N+](=O)[O-])c45)c1c32
- IC50 [1]: 40 nM
- IC50 [2]: 37 nM
- IC50 [3]: 138 nM
- IC50 [4]: 86 nM
- inhibition in vivo at 16 mg/kg [10]: 60%
- IC50 [5]: 64 nM
- IC50 [6]: 102 nM
- ΔTm [11]: 19.3 °C
- IC50 [12]: 27 nM
- IC50 [13]: 82 nM
- inhibition in vivo at 16 mg/kg [14]: 76%
- IC50 [15]: 44 nM
- ΔTm [16]: 10.4 °C
- ΔTm [17]: 31.6 °C
- ΔTm [18]: 19.5 °C

Structure (SMILES): NC(CCN1CCN(CCCNc2ccc3nnn4c5ccccc5c(=O)c2c34)CC1)c1ccc2nc3ccccc3cc2c1[N+](=O)[O-] (configuration not stated)
- IC50 [1]: 22 nM
- IC50 [2]: 138 nM
- IC50 [3]: 120 nM
- IC50 [4]: 103 nM
- IC50 [5]: 41 nM
- IC50 [6]: 22 nM
- ΔTm [11]: 33.2 °C
- IC50 [12]: 152 nM
- IC50 [15]: 33 nM
- ΔTm [16]: 3.9 °C
- ΔTm [17]: 26.1 °C
- ΔTm [18]: 26.6 °C
- inhibition in vivo at 8 mg/kg [19]: 39%
